These antisense oligonucleotides have a phosphorothioate backbone; sugars and methylation of C are not fully specified.
Further: test concentration or dose not given here.

The target of this data set is GNAS. As to conditions: ASO.
Sequence CTTTGGTTGCCTTCTCACTG gave a remaining target (mRNA or protein) (fraction of control) of 0.55.
Next, CTTTTATTTCATTTTATTTG: 0.97.
With GAATGATGTCACGGCAGTCG the figure was 0.39.
For GATGTTCTCAGTGTCCACAG, the remaining target (mRNA or protein) (fraction of control) worked out at 0.45.
With GCAGGTGAAATGAGGGTAGC the figure was no less than 1; with GCGCAGGTGAAATGAGGGTA, 0.9.
With GCGCTGAATGATGTCACGGC the figure was 0.38; with GCTGCTGCTGTTTTATTTAT, 0.43.
Next, GCTGCTGTTTTATTTATTTT: 0.75; GGGTTCCCTTCTTAGAGCAG: 0.52.
As for GGGTTTCGCAAAATCACTCG, the remaining target (mRNA or protein) (fraction of control) was 0.61.
Next, GGTTCCCTTCTTAGAGCAGC: no less than 1; GGTTGCCTTCTCACTGTCTC: 0.58.
With GGTTTCGCAAAATCACTCGG the figure was 0.41; with GTGAAATGAGGGTAGCAGTA, no less than 1.
Turning to GTGAGAGGGAACTTTTGTGG, the remaining target (mRNA or protein) (fraction of control) is 0.72.
With GTTGCCTTCTCACTGTCTCC the figure was 0.75; with GTTTCGCAAAATCACTCGGG, 0.5.
The sequence GTTTCTTTTATTTCATTTTA returned a remaining target (mRNA or protein) (fraction of control) of no less than 1.
GTTTGCTGCTGCTGTTTTAT had a remaining target (mRNA or protein) (fraction of control) of 0.53.
The sequence TACTGAAAGTGAGAGGGAAC gave a remaining target (mRNA or protein) (fraction of control) of 0.65.
Next, TATTTATTTCATTTGTTTCT: no less than 1.
With TATTTCATTTGTTTATTTTA the figure was no less than 1; with TATTTGTTTGCTGCTGCTGT, no less than 1.
With TCATTTGTTTCTTTTATTTC the figure was 0.85.
In turn, TCATTTTATTTGTTTGCTGC came in with a remaining target (mRNA or protein) (fraction of control) of 0.75.
Next, TCTTTTATTTCATTTTATTT: 0.84.
For TGAATGATGTCACGGCAGTC, the remaining target (mRNA or protein) (fraction of control) is 0.69.
With TGAGAGGGAACTTTTGTGGC the figure was 0.72; with TGCCTTCTCACTGTCTCCAT, 0.75.
Next, TGCGCTGAATGATGTCACGG: 0.41.
Next, TGCTGCTGCTGTTTTATTTA: 0.62; TGCTGCTGTTTTATTTATTT: no less than 1; TGGTTGCCTTCTCACTGTCT: 0.62.
TGTTCTCAGTGTCCACAGCG gave a remaining target (mRNA or protein) (fraction of control) of 0.39.
With TGTTTCTTTTATTTCATTTT the figure was no less than 1.
As to TGTTTGCTGCTGCTGTTTTA, the remaining target (mRNA or protein) (fraction of control) was found to be 0.96.
Next, TTACTGAAAGTGAGAGGGAA: no less than 1.
Next, TTATTTCATTTGTTTCTTTT: 0.64.
Next, TTATTTCATTTTATTTGTTT: 0.92.
As to TTCATTTGTTTCTTTTATTT, the remaining target (mRNA or protein) (fraction of control) is no less than 1.
Sequence TTCATTTTATTTGTTTGCTG yielded a remaining target (mRNA or protein) (fraction of control) of 0.79.
Next, TTCTTTTATTTCATTTTATT: no less than 1.
Next, TTGCCTTCTCACTGTCTCCA: 0.56; TTGCTGCTGCTGTTTTATTT: no less than 1; TTGTTTCTTTTATTTCATTT: no less than 1.
Next, TTGTTTGCTGCTGCTGTTTT: 0.45; TTTATTTCATTTGTTTCTTT: 0.93; TTTATTTCATTTTATTTGTT: no less than 1.
For the sequence TTTCATTTGTTTCTTTTATT, the remaining target (mRNA or protein) (fraction of control) was no less than 1.
With TTTCATTTTATTTGTTTGCT the figure was no less than 1; with TTTCTTTTATTTCATTTTAT, no less than 1; with TTTGCTGCTGCTGTTTTATT, 0.66.
For the sequence TTTGGAACATCTAAGCAAGC, the remaining target (mRNA or protein) (fraction of control) was found to be 0.97.
With TTTGTTTCTTTTATTTCATT the figure was 0.83; with TTTGTTTGCTGCTGCTGTTT, 0.96; with TTTTACTGAAAGTGAGAGGG, 0.9.
As for TTTTATTTCATTTTATTTGT, the remaining target (mRNA or protein) (fraction of control) turned out to be 0.91.

(Values after the OligoGym collection.)
